{
  "source": "ChEMBL document CHEMBL1133776",
  "about": "“A rapid computational method for lead evolution: description and application to alpha(1)-adrenergic antagonists” (J Med Chem, 2000)",
  "target": "T1, Adrenergic receptor alpha-1 (Rattus norvegicus, UniProt P15823+P23944+P43140)",
  "T1 sequence (P15823 whole entry)": "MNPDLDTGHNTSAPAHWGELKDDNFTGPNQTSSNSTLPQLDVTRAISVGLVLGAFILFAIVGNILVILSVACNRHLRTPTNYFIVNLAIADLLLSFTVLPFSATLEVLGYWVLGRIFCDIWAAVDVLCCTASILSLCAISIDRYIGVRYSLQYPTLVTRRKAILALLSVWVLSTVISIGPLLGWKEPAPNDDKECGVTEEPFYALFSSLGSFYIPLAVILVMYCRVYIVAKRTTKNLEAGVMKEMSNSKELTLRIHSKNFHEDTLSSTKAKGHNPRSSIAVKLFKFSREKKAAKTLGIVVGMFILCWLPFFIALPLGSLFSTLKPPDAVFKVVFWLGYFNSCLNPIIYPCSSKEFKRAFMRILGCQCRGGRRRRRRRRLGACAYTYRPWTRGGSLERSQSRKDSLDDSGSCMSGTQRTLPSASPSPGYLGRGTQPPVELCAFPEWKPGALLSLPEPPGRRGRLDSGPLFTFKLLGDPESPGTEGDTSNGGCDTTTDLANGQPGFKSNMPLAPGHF",
  "T1 sequence (P23944 whole entry)": "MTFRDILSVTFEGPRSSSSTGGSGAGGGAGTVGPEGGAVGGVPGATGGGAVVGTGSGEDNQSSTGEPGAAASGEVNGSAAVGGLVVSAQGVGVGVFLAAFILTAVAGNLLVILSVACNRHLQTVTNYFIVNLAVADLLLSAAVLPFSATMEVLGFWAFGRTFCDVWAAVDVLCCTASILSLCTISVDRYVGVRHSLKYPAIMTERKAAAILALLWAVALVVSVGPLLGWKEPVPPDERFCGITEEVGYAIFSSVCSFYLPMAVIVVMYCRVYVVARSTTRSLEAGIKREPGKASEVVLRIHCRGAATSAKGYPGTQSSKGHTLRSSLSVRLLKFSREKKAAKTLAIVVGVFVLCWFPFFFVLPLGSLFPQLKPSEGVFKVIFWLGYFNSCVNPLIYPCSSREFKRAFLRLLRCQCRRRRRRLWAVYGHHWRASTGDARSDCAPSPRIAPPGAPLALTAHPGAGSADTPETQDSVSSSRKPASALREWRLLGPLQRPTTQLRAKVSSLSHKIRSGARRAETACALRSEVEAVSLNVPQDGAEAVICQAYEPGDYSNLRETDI",
  "T1 sequence (P43140 whole entry)": "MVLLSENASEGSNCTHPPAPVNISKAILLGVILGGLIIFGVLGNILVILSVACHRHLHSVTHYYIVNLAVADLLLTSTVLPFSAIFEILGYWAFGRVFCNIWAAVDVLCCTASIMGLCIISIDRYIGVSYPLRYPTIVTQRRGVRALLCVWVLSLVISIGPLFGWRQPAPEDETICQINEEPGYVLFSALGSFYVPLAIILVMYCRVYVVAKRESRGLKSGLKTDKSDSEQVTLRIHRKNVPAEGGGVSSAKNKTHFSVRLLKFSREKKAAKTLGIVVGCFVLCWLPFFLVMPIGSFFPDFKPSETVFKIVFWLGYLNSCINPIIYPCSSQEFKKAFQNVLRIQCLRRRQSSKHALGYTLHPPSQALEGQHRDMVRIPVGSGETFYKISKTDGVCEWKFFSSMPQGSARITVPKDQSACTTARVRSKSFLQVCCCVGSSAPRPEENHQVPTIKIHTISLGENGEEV",
  "assay": "Evaluated for binding affinity against alpha-1 adrenergic receptor",
  "assay_type": "protein assay",
  "data": [
    {"compound": "COc1cccc(OC)c1OCCNCC1COc2ccccc2O1", "note": "(stereo unspecified)", "values": [
      {"measurement": "Ki", "result": 0.54, "unit": "nM"}
    ]}
  ]
}
